The values below come from patent publication US20110111016A1, “NON-DNA BASE-CONTAINING POLYNUCLEOTIDE COMPOSITIONS AND THEIR USE FOR THE MODULATION OF IMMUNE RESPONSES” (priority 2009, published 2011).

Format in all cases: cell-based
In one assay the test system is human PBMC. Nature of the assay: Induction of cytokines from human PBMC (ELISA cytokine capture assay). As to conditions: PBMC of 3 healthy adults, 48 h; increase two-fold that of background control; SEQ ID NOs 1-3 100 μg/mL, CpG 2006 and MCC 1-100 μg/mL, LPS 10 μg/mL. The source says:
A number of immune adjuvants are known to be capable of eliciting cytokines from human PBMC cells. Examples of such adjuvants are alum, lipopolysaccharide, monophosphoryl lipid A, CpG-containing polynucleotides and non-CpG-containing ODN's, as well as mycobacterial cell wall-DNA complex (MCC). […] PBMC were isolated from whole blood using standard Ficoll-Paque (GE Healthcare Life Sciences, Baie d'Urfé, QC, Canada) gradient centrifugation, and placed in tissue culture plates at a concentration of 10^6 cells/mL (total volume: 1 mL in RPMI 1640 medium containing 10% heat-inactivated FBS, both from Wisent, St-Bruno, QC, Canada) and 50 μg/mL gentamycin sulfate (Sigma-Aldrich Canada, Oakville, ON, Canada). SEQ ID NOs: 1, 2 or 3 were added to give a final concentration of 100 μg/mL, and the cells were cultivated for 48 h. Cytokines (IL-1β, IL-2, IL-6, IL-10 and IL-12p40) in the supernatant at the end of incubation were determined by ELISA using a cytokine capture assay process (Biosource, Camarillo, Calif.). SEQ ID NO: 32 CpG 2006 ODN (1-100 μg/mL, 5′-[…]-3′, […]), MCC (1-100 μg/mL) and LPS (10 μg/mL) were used as positive controls.
Background: An ELISA detects its analyte on a solid surface through an enzyme-linked reagent.

The next assay addresses T1, human TLR9 (Homo sapiens, UniProt Q9NR96).
T1 construct: host or cells: HEK293
T1 sequence (Q9NR96 26-1032): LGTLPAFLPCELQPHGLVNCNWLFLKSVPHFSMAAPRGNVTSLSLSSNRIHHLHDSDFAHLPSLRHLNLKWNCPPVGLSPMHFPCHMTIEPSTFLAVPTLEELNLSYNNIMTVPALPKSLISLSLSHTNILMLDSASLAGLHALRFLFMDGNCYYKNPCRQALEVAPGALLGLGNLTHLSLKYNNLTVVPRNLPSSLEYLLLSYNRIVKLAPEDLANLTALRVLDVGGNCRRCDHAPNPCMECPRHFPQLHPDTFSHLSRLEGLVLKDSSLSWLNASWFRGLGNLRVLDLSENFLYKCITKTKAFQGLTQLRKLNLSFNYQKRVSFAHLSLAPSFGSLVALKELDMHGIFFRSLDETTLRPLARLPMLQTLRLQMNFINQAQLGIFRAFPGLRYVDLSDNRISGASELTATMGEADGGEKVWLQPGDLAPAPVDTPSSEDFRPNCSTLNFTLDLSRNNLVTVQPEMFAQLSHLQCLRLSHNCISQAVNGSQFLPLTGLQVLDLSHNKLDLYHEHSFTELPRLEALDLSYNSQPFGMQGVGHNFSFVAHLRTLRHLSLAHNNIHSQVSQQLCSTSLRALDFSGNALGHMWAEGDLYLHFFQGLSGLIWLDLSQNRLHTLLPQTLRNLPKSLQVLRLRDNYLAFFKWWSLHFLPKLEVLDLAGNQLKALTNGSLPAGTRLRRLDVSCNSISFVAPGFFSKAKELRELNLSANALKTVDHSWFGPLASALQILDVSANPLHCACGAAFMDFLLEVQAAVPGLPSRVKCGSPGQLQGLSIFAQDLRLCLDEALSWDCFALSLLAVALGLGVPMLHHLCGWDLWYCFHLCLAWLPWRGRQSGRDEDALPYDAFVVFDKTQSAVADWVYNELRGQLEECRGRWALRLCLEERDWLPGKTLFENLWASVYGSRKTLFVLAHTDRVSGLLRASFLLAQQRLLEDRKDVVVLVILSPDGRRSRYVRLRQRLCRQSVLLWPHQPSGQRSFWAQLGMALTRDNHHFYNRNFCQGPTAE
Nature of the assay: NF-κB activation (secreted alkaline phosphatase reporter) in HEK293 cells expressing human TLR9. As to conditions: HEK293/hTLR9 cell line; at 100 ng/mL; 16-20 hours. The procedure: Toll-like receptors (TLR) are known to interact with a number of natural and synthetic molecules that can function as immune adjuvants. Examples of these molecules are Poly (I:C) polynucleotides, lipopolysaccharide and CpG-containing polynucleotides. The interaction of non-DNA base-containing polynucleotides (SEQ ID NOs: 1-3) to interact with TLR and induce down-stream signaling was tested by assessing NF-κB activation in HEK293 cells expressing human TLR2, 3, 4, 5, 7, 8 and 9. TLR engagement was determined by measurement of secreted alkaline phosphatase, under the control of a reporter inducible by NF-κB. Appropriate positive controls were used for each TLR. […] HEK293 cells containing the appropriate TLR and NF-κB reporting system (InvivoGen, San Diego, Calif., USA) were placed in wells of 96 well plates (25,000-50,000 cells, in a final volume of 200 μL medium designed for the detection of NF-κB induced secreted alkaline phosphatase expression), and incubated with non-DNA base-containing polynucleotides or positive controls for 16-20 hours. TLR activating activity was determined by measurement of absorbance at 650 nm wavelength using a Coulter AD340C absorbance detector. The results shown are expressed as Optical Density (OD).

For a further assay, the target named is T2, human TLR3 (Homo sapiens, UniProt O15455).
T2 construct: host or cells: HEK293
T2 sequence (O15455 24-904): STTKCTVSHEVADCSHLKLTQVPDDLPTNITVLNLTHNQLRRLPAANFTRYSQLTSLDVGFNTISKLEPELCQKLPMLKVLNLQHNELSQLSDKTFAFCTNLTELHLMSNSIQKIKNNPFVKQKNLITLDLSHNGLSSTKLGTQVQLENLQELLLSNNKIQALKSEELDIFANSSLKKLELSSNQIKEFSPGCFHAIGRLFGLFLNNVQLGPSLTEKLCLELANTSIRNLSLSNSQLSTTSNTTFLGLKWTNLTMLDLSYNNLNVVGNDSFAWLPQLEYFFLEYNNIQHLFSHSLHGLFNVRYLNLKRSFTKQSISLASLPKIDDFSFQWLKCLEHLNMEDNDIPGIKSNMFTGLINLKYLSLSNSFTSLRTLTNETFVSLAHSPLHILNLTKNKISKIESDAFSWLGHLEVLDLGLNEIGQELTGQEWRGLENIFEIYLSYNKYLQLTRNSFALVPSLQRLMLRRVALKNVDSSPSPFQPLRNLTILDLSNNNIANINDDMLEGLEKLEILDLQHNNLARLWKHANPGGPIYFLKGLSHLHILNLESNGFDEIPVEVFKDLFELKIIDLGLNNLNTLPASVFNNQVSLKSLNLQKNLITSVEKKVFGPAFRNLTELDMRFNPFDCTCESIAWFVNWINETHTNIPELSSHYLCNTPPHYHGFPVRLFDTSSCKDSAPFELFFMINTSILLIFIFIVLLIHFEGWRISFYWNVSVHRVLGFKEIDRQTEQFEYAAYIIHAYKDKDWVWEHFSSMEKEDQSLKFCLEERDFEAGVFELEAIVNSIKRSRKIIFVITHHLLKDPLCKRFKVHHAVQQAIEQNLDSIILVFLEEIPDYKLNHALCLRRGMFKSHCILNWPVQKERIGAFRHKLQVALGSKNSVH
Description: NF-κB activation (secreted alkaline phosphatase reporter) in HEK293 cells expressing human TLR3. Conditions: HEK293/hTLR3 cell line; at 1 μg/mL; 16-20 hours. On the procedure: (§1) Toll-like receptors (TLR) are known to interact with a number of natural and synthetic molecules that can function as immune adjuvants. Examples of these molecules are Poly (I:C) polynucleotides, lipopolysaccharide and CpG-containing polynucleotides. The interaction of non-DNA base-containing polynucleotides (SEQ ID NOs: 1-3) to interact with TLR and induce down-stream signaling was tested by assessing NF-κB activation in HEK293 cells expressing human TLR2, 3, 4, 5, 7, 8 and 9. TLR engagement was determined by measurement of secreted alkaline phosphatase, under the control of a reporter inducible by NF-κB. Appropriate positive controls were used for each TLR. The non-DNA base-containing polynucleotides were dissolved in sterile water at a concentration of 100 μg/mL, and used at a final concentration of 10 μg/mL. HEK293 cells containing the appropriate TLR and NF-κB reporting system (InvivoGen, San Diego, Calif., USA) were placed in wells of 96 well plates (25,000-50,000 cells, in a final volume of 200 μL medium designed for the detection of NF-κB induced secreted alkaline phosphatase expression), and incubated with non-DNA base-containing polynucleotides or positive controls for 16-20 hours. TLR activating activity was determined by measurement of absorbance at 650 nm wavelength using a Coulter AD340C absorbance detector. The results shown are expressed as Optical Density (OD).

In another assay the test system is NF-κB control cells. Description: NF-κB reporter control cells (secreted alkaline phosphatase). Conditions: at 100 ng/mL, 16-20 hours. The procedure:
as §1

In the next assay the target is T3, human TLR5 (Homo sapiens, UniProt O60602).
T3 construct: host or cells: HEK293
T3 sequence (O60602 21-858): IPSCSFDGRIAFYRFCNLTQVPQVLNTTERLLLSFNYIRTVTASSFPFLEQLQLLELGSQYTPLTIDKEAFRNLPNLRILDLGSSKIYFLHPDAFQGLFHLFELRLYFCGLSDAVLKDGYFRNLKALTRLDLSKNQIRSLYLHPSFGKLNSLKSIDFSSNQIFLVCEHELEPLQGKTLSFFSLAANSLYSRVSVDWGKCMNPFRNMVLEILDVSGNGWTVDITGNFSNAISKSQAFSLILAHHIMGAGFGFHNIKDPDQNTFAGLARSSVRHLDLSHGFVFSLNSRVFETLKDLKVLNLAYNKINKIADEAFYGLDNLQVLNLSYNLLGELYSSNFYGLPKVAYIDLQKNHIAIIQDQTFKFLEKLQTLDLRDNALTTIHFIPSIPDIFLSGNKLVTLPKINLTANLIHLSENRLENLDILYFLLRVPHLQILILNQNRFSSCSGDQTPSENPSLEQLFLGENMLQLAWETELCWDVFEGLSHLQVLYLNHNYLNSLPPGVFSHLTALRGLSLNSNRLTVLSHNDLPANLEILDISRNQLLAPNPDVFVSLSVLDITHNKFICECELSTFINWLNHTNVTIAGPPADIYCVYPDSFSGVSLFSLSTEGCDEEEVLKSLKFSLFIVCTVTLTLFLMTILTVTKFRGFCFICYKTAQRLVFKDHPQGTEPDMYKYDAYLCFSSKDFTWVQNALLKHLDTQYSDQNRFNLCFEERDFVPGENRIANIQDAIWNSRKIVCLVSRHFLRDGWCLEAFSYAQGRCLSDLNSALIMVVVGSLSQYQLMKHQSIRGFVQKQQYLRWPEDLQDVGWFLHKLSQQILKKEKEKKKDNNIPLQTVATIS
Nature of the assay: NF-κB activation (secreted alkaline phosphatase reporter) in HEK293 cells expressing human TLR5. As to conditions: HEK293/hTLR5 cell line; at 100 ng/mL; 16-20 hours. On the procedure: as §1

On to “5′-TCGTCGTTTTGTCGTTTTGTCGTT-3′ [SEQ ID NO: 32 CpG 2006, reference compound]”, for which, in the assay with human PBMC, the “Number of individuals responding, IL-1β” value is 0/3; the “Number of individuals responding, IL-2” value is reported as 0/3; the “Number of individuals responding, IL-6” value is reported as 3/3; the “Number of individuals responding, IL-10” value is on record as 2/3. Also, the “Number of individuals responding, IL-12p40” value in the assay with human PBMC is listed as 1/3. Besides, the “TLR activation, Optical Density at 650 nm, hTLR9, positive control” value at human TLR9 is 1.904.

For the molecule Poly (I:C) [reference compound], the “TLR activation, Optical Density at 650 nm, hTLR3, positive control” value at human TLR3 is reported as 2.547.

Regarding `CCCCCCCCCCCCCC(=O)O[C@@H]1[C@@H](C)[C@@]2(O)[C@@H](C=C(CO)C[C@]3(O)C(=O)C(C)=C[C@@H]23)[C@@H]2C(C)(C)[C@]12OC(C)=O` [PMA, reference compound], in the assay on NF-κB control cells, the “Optical Density at 650 nm, NF-κB control cells, positive control” value is given as 2.765.

B1: S. typhimurium flagellin: hTLR5 positive control (protein)
chain: AQVINTNSLSLLTQNNLNKSQSALGTAIERLSSGLRINSAKDDAAGQAIANRFTANIKGLTQASRNANDGISIAQTTEGALNEINNNLQRVRELAVQSANSTNSQSDLDSIQAEITQRLNEIDRVSGQTQFNGVKVLAQDNTLTIQVGANDGETIDIDLKQINSQTLGLDTLNVQQKYKVSDTAATVTGYADTTIALDNSTFKASATGLGGTDQKIDGDLKFDDTTGKYYAKVTVTGGTGKDGYYEVSVDKTNGEVTLAGGATSPLTGGLPATATEDVKNVQVANADLTEAKAALTAAGVTGTASVVKMSYTDNNGKTIDGGLAVKVGDDYYSATQNKDGSISINTTKYTADDGTSKTALNKLGGADGKTEVVSIGGKTYAASKAEGHNFKAQPDLAEAAATTTENPLQKIDAALAQVDTLRSDLGAVQNRFNSAITNLGNTVNNLTSARSRIEDSDYATEVSNMSRAQILQQAGTSVLAQANQVPQNVLSLLR
With B1, the “TLR activation, Optical Density at 650 nm, hTLR5, positive control” value with human TLR5 came to 2.593.
